{"source": "patent US7371776B2", "about": "“Methods and compositions for treating cancer” (Mars, Incorporated, priority 2004, dated 2008)", "format_in_all_cases": "cell-based, human", "key": {"[1]": {"test_system": "SKBR-3 cells", "assay": "Mitochondrial membrane potential depolarization (ApoAlert, flow cytometry)", "experimental": "(§1) Mitochondrial membrane potential was determined using ApoAlert™ Mitochondrial Membrane Sensor Kit (Clonetech Inc., Palo Alto, Calif.). The MDA MB-231, MCF-7, MDA MB-468, MDA MB-436, SKBR-3, MCF-10A, MCF-10A-c-Myc and AIN4 cells were grown, in appropriate media, to 60-70% confluence in 25 cm^2 dishes. The following day, the complete media was replaced with complete media containing (i) pentamer (100 μg/mL, or in some cases with 25 μg/mL), (ii) media with DMSO, or (iii) media only. Initially, cells were grown in the presence of pentamer for 1, 2, 3, 6, 12 and 24 hrs but only 1, 2 and 6 hrs treatments were selected for subsequent studies. All floating and adherent cells were combined, and then the cells were aliquoted into flow cytometry tubes. Approximately, 1×10^6 cells per tube were analyzed, according to the manufacturer's instructions. Samples were analyzed at the Lombardi Comprehensive Cancer Center Core Flow Cytometry Shared Resource Facility."}, "[2]": {"test_system": "AIN4 cells", "assay": "Mitochondrial membrane potential depolarization (ApoAlert, flow cytometry)", "experimental": "as §1"}, "[3]": {"test_system": "MDA MB-468 cells", "assay": "Mitochondrial membrane potential depolarization (ApoAlert, flow cytometry)", "experimental": "as §1"}, "[4]": {"test_system": "MDA MB-231 cells", "assay": "Mitochondrial membrane potential depolarization (ApoAlert, flow cytometry)", "experimental": "as §1"}, "[5]": {"test_system": "MDA MB-436 cells", "assay": "Mitochondrial membrane potential depolarization (ApoAlert, flow cytometry)", "experimental": "as §1"}, "[6]": {"test_system": "MCF-7 cells", "assay": "Mitochondrial membrane potential depolarization (ApoAlert, flow cytometry)", "conditions": "several attempts, different passages", "experimental": "as §1"}, "[7]": {"test_system": "MCF-10A cells", "assay": "Mitochondrial membrane potential depolarization (ApoAlert, flow cytometry)", "experimental": "as §1"}, "[8]": {"test_system": "pRb at Ser 795 and Ser807/811", "assay": "LPS multi-well plate phosphorylation screen in MDA MB-231 cells", "conditions": "100 μg/mL", "description": "(§2) Layered Protein Scanning (LPS) is a method for screening liquid protein samples in a high throughput manner using multi-well plates [Englert, C. R. et al., Cancer Res., 60: 1526-1530, 2000], and conducted by 20/20 Gene Systems, Inc., (Rockville, Md.). In short, cells are lysed and protein extract loaded into the wells of vacuum manifold and transferred through a stack of membranes. From each set of samples, up to five dot blot membranes are generated.\n(§3) MDA MB-231 human breast cancer cells were treated, with or without 100 μg/mL pentamer, for 48 and 72 hours. Cells were lysed in LPS/MWP lysis buffer (20/20 Gene Systems, Inc.). Protein concentration was determined using BCA Protein Assay Kit (Pierce, Rockford, Ill.). Ten and 20 μg of each protein sample was loaded in duplicate onto Bio-Dot Microfiltration Apparatus (BioRad, Philadelphia, Pa.) and transferred through a 5-membrane stack as recommended by the manufacturer (20/20 Gene Systems). After the transfer, all of the membranes were biotinylated in 1 mg/mL EZ-Link Sulfo-NHS-Biotin solution in 1×PBS for 10 minutes at room temperature (Pierce).\n(§4) Membranes were incubated overnight at 4° C. with the antibodies shown in Table 1 (1:500 or 1:1000 dilution). The following day, membranes were washed in Tris-buffered saline with Tween 20 (0.1%) (TBST buffer) and incubated for 60 minutes at room temperature in a mixture of FluoroLink Cy 5-labeled Streptavidin (1:500, Amersham) and Fluorescein-labeled secondary anti-mouse or anti-rabbit antibody (1:2,000, Molecular Probes, Eugene, Oreg.), followed by washes in TBST. Membranes were dried and scanned on a Typhoon scanner (Amersham), and obtained images were analyzed with InageQuant software (Amersham). Data were plotted in Excel and statistically analyzed in JMP (SAS Institute, Inc., Cary, N.C.). Hierarchical clustering analysis was performed to evaluate segregation of samples into control and treated groups."}, "[9]": {"test_system": "SAPK/JNK at Thr183/Tyr185", "assay": "LPS multi-well plate phosphorylation screen in MDA MB-231 cells", "conditions": "100 μg/mL", "description": "as §2, §3, §4"}, "[10]": {"test_system": "p53", "assay": "LPS multi-well plate phosphorylation screen in MDA MB-231 cells", "conditions": "100 μg/mL", "description": "as §2, §3, §4"}, "[11]": {"test_system": "Stat 5 at Tyr 694", "assay": "LPS multi-well plate phosphorylation screen in MDA MB-231 cells", "conditions": "100 μg/mL", "description": "as §2, §3, §4"}, "[12]": {"test_system": "PKC-δ at Ser643", "assay": "LPS multi-well plate phosphorylation screen in MDA MB-231 cells", "conditions": "100 μg/mL", "description": "as §2, §3, §4"}, "[13]": {"test_system": "Cdc2 (Tyr15)", "assay": "LPS multi-well plate phosphorylation screen in MDA MB-231 cells", "conditions": "100 μg/mL, densitometry vs control", "description": "as §2, §3, §4"}, "[14]": {"test_system": "p53", "assay": "High resolution profiling (P-FILM) of p53 in MDA MB-231 cells", "conditions": "100 μg/mL", "experimental": "Both p53 and pRb contain multiple phosphorylation sites, and evaluating each site separately provides a more accurate indication of each protein's potential function. Therefore, a high resolution functional profiling of the proteins was performed using P-FILM technology (20/20 Gene Systems, Inc.).\nThe same protein samples as those used for PDVF membrane blotting were used. Ten μg of each protein sample of MDA MB-231 cells, and in some cases MDA MB-468 and MCF-7 cells, treated with 100 μg /mL of pentamer or DMSO-treated controls, were separated by PAGE on 4-20% gradient gels (BioRad). Proteins were transferred on a stack of ten membranes, according to manufacturer's instructions (20/20 Gene Systems, Inc.). The membranes were probed with antibodies recognizing total and phosphorylated p53 (p53Ser6, Ser9, Ser15, Ser20, Ser37, Ser46 and Ser392) at 1:1000 dilution as recommended by the manufacturer (Cell Signaling). The secondary antibody used in all cases was anti-rabbit polyclonal 1:2000 (Amersham). Signals were visualized on BIOMAX MR film (Kodak). The profiling of pRb was done using anti-phospho pRb (Ser780, Ser 795 and Ser 807/811) and anti-pRb polyclonal antibody (Cell Signaling) at a 1:1000 dilution. The secondary antibody used in all cases was anti-rabbit at 1:2000 dilution (Amersham). Image analysis was performed with Kodak 1D image analysis software. Background corrected intensity values were normalized for loading by using GAPDH intensities. Numerical analysis was performed in Excel."}, "[15]": {"conditions": "pentamer-treated, average of three experiments"}}}
{"smiles": "Oc1cc(O)c2c(c1)O[C@H](c1ccc(O)c(O)c1)[C@H](O)[C@H]2c1c(O)cc(O)c2c1O[C@H](c1ccc(O)c(O)c1)[C@H](O)[C@H]2c1c(O)cc(O)c2c1O[C@H](c1ccc(O)c(O)c1)[C@H](O)[C@H]2c1c(O)cc(O)c2c1O[C@H](c1ccc(O)c(O)c1)[C@H](O)[C@H]2c1c(O)cc(O)c2c1O[C@H](c1ccc(O)c(O)c1)[C@H](O)C2", "note": "[pentamer, pentameric procyanidin]", "values": [{"measurement": "MMP depolarization, Fold Increase over DMSO", "setting": "[1]", "result": 2.5}, {"measurement": "MMP depolarization (%)", "setting": "[1]; [15]", "result": 25, "unit": "%"}, {"measurement": "MMP depolarization, Fold Increase over DMSO", "setting": "[2]", "result": 3.2}, {"measurement": "MMP depolarization (%)", "setting": "[2]; [15]", "result": 20, "unit": "%"}, {"measurement": "MMP depolarization, Fold Increase over DMSO", "setting": "[3]", "result": 5}, {"measurement": "MMP depolarization (%)", "setting": "[3]; [15]", "result": 60, "unit": "%"}, {"measurement": "MMP depolarization, Fold Increase over DMSO", "setting": "[4]", "result": 14.5}, {"measurement": "depolarization of mitochondrial membrane, time course", "setting": "[4]; 100 μg/mL, 1, 2 and 6 hours", "result": "time-dependent depolarization"}, {"measurement": "depolarization of mitochondrial membrane, dose response", "setting": "[4]; 25 and 100 μg/mL", "result": "dose-dependent response"}, {"measurement": "MMP depolarization (%)", "setting": "[4]; [15]", "result": 58, "unit": "%"}, {"measurement": "MMP depolarization, Fold Increase over DMSO", "setting": "[5]", "result": 5.7}, {"measurement": "MMP depolarization (%)", "setting": "[5]; [15]", "result": 50, "unit": "%"}, {"measurement": "depolarization of the mitochondrial membrane", "setting": "[6]", "result": "depolarization could not be demonstrated"}, {"measurement": "MMP depolarization, Fold Increase over DMSO", "setting": "[7]", "result": 2}, {"measurement": "MMP depolarization (%)", "setting": "[7]; [15]", "result": 20, "unit": "%"}, {"measurement": "phosphorylation of pRb at Ser 795 and Ser807/811 decreased", "setting": "[8]; 48 hrs", "result": 36, "unit": "%"}, {"measurement": "phosphorylation of pRb at Ser 795 and Ser807/811 decreased", "setting": "[8]; 72 hrs", "result": 40, "unit": "%"}, {"measurement": "phosphorylation of SAPK/JNK at Thr183/Tyr185 decreased", "setting": "[9]; 48 hrs", "result": 34, "unit": "%"}, {"measurement": "phosphorylation of SAPK/JNK at Thr183/Tyr185 decreased", "setting": "[9]; 72 hrs", "result": 26, "unit": "%"}, {"measurement": "phosphorylation of p53 residues Ser6, Ser9, Ser20 and Ser15", "setting": "[10]; LPS", "result": "not significantly affected"}, {"measurement": "phosphorylation of p53 (antibody mix at Ser37, 46 and 392) decreased", "setting": "[10]; post treatment, densitometry vs control", "result": 36, "unit": "%"}, {"measurement": "Stat 5 phosphorylation at Tyr 694 decreased", "setting": "[11]; 48 hrs", "result": 28, "unit": "%"}, {"measurement": "Stat 5 phosphorylation at Tyr 694 decreased", "setting": "[11]; 72 hrs", "result": 33, "unit": "%"}, {"measurement": "phosphorylation of PKC-δ at Ser643 decreased", "setting": "[12]; 48 hrs", "result": 22, "unit": "%"}, {"measurement": "phosphorylation of PKC-δ at Ser643 decreased", "setting": "[12]; 72 hrs", "result": 49, "unit": "%"}, {"measurement": "phosphorylation of Cdc2 (Tyr15) decreased", "setting": "[13]; 48 hrs", "result": 31, "unit": "%"}, {"measurement": "phosphorylation of Cdc2 (Tyr15) decreased", "setting": "[13]; 72 hrs", "result": 45, "unit": "%"}, {"measurement": "percentage of p53 phosphorylated at Ser392 decreased, compared to untreated controls", "setting": "[14]", "result": 53, "unit": "%"}, {"measurement": "phosphorylation of p53 Ser15 residue", "setting": "[14]; 48 h", "result": "slight decreases"}, {"measurement": "phosphorylation of p53 Ser46", "setting": "[14]; 48 h", "result": "slight decreases"}, {"measurement": "phosphorylation of p53 Ser20 residue", "setting": "[14]; 48 hrs", "result": "decreased"}, {"measurement": "levels of endogenous p53 expression", "setting": "[14]; 48 hrs, not significant by densitometry", "result": "slightly decreased"}, {"measurement": "phosphorylation of p53 Ser20 residue", "setting": "[14]; 72 hrs", "result": "not affected"}, {"measurement": "phosphorylation of p53 Ser392 residue", "setting": "[14]; both 48 and 72 hrs", "result": "significant dephosphorylation"}]}
